The values below are quoted from earlier work in publication PMC5465828 (Research in Pharmaceutical Sciences, 2017).

For this data set, the system named is human colon carcinoma HCT116 cell line. Particulars: read-out: IC50 of doxorubicin in HCT116 cells; doxorubicin alone.

For the compound `COc1cccc2c1C(=O)c1c(O)c3c(c(O)c1C2=O)C[C@@](O)(C(=O)CO)C[C@@H]3O[C@H]1C[C@H](N)[C@H](O)[C@H](C)O1` [doxorubicin], the IC50 – broadly, the midpoint of a concentration-inhibition curve – is 200 nM.
